From patent publication US9353116B2, “Methods and compositions for kinase inhibition” (THE REGENTS OF THE UNIVERSITY OF CALIFORNIA, priority 2010, dated 2016)

Experiments:
Format in all cases: biochemical
WT c-Src = WT c-Src (Gallus gallus (Chicken), UniProt P00523); experiment: Gel filtration and kinetic assay, WT c-Src; conditions: 23 μM inhibitor, 25 minutes, then PD10 desalting
Description: (§1) Inhibitors (final concentration 23 μM) were incubated with c-Src variants (final concentration 11.5 μM) in kinase reaction buffer (50 mM Tris pH 8, 100 mM NaCl, 1 mM DTT, 5% glycerol, 5% DMSO) for 25 minutes at room temperature. The solutions (2.6 mL total) were then passed over PD10 desalting columns (GE Healthcare) using the kinase reaction buffer for elution. Src concentrations were calculated using the extinction coefficient for c-Src (51.140 mM^−1cm^−1) {Seeliger, 2005 #100}. Kinase assays were performed as described in the experimental section at a final enzyme concentration of 10 nM.

T338C c-Src = T338C c-Src (Gallus gallus (Chicken), UniProt P00523, T338C); experiment: Gel filtration and kinetic assay, T338C c-Src; conditions: 23 μM inhibitor, 25 minutes, then PD10 desalting
Description: as §1

307 kinases = experiment: Kinome-wide profiling (SelectScreen Kinase Profiling Service); conditions: compounds at 1 μM, ATP at Km,app
Description: The percent inhibition results in FIG. were generated with biochemical enzymatic kinase assays using the SelectScreen® Kinase Profiling Service (Life Technologies Corporation, Madison, Wis.). Compounds were assayed at 1 μM at an ATP concentration equal to the ATP Km,app for the assay following the detailed procedures described in the SelectScreen® Customer Protocol and Assay Conditions documents located at www.invitrogen.com/kinaseprofiling.
Compounds that were profiled include, but are not limited to, 3, 4, 9, 13, and 20. […] The exocyclic amine mimics N6 of ATP and plays an important role in a hydrogen bonding interaction with the hinge region of kinases.

SMILES: CC(C)n1nc(Cc2cccc(C(=O)CF)c2)c2c(N)ncnc21 [Compound 13, 1-(3-((4-amino-1-isopropyl-1H-pyrazolo[3,4-d]pyrimidin-3-yl)methyl)phenyl)-2-fluoroethanone]
- inhibitory activity after gel filtration, WT c-Src (WT c-Src): lost
- inhibitory activity after gel filtration, T338C c-Src (T338C c-Src): retained
- off-target profile in kinome-wide screen (307 kinases): clean profile
